From patent US7910559B2, “Decladinosyl-macrolides with anti-inflammatory activity” (GlaxoSmithKline istrazivacki centar Zagreb d.o.o., priority 2005, dated 2011)
Like-named read-outs stand apart in the source and are kept apart here.

How the values were obtained:
Format in all cases: cell-based
THP-1 = settings: human, 24 h
Method: (§1) Anti-inflammatory activity of compounds, i.e. observed inhibition of cytokine production and inhibition of proliferation in vitro, is not a consequence of their cytotoxicity.
(§2) Measurement of the succinate dehydrogenase activity in living cells was performed in order to assess the cytotoxicity of compounds of the invention. Cells were cultured for 24 hours in RPMI medium as described above at 37° C., in the presence of the tested compounds at concentrations of 50 μM and 12.5 μM. Afterwards, MTT [3-(4,5-dimethylthiazole-2-yl)-2,5-diphenyl tetrazolium bromide] (Promega, USA) as detection reagent was added and incubated for 0.5-2 hours. The amount of produced MTT-Formazan was determined spectrophotometrically at 490 nm (Mosmann, J. Immunol. Methods, 1983, 65: 55-63).
(§3) Percentage of viable cells was calculated using the following formula: % viable cells=[…]

A549 = settings: human, 24 h
Method: as §1, §2, §3

Hep G2 = settings: human, 24 h
Method: as §1, §2, §3

human IL-8 = experiment: Inhibition of IL-8 production by stimulated human peripheral blood leukocytes in vitro (ELISA); settings: Homo sapiens, Leukocyte, PBL, read-out: Percentage of inhibition of IL-8 production; for inhibition at 10 µM: compound 10 μM; for inhibition at 50 µM: compound 50 μM
Method: (§4) Substances, used in in vitro experiments, were dissolved in dimethyl sulfoxide (DMSO) (Kemika, Croatia) at concentrations of 50 mM and 10 mM and were further diluted to the final concentrations of […] in 1 mL Dulbecco's modified Eagle medium (DMEM) supplemented with 1% heat inactivated fetal bovine serum (FBS), 1% glutamax, 50 U/ml penicillin, 50 μg/ml streptomycin and 2.5 μg/mL Fungizone (amphotericin B). Media and all media supplements were purchased from Gibco, Australia, except FBS that was from Sigma, USA.
(§5) Peripheral blood leukocytes (PBL) were obtained from venous blood of healthy volunteers by sedimentation on 2% dextran T-500 (Amersham Biosciences, USA) and subsequent centrifugations of leukocyte-rich plasma.
(§6) Peripheral blood leukocytes (PBL), isolated as described above, were seeded in a 48-well plate at a concentration of 3-5×10^6 cell per well in culture medium consisting of RPMI 1640 medium (Institute of Immunology, Croatia) supplemented with 10% heat-inactivated fetal calf serum (FCS, Biowhittaker, USA), 100 U/ml penicillin (Gibco, Australia), 100 μg/ml streptomycin (Gibco, Australia) and 2 mM L-glutamine (Gibco, Australia), and preincubated with the tested compounds for 2 h at 37° C., in an atmosphere of 5% CO2, and 90% humidity. Afterwards, stimuli (Sigma, USA) were added to a final concentration of 2 μg/mL lipopolysaccharide (LPS), 1 μg/mL phorbol 12-myristate 13-acetate (PMA) or 120 μg/mL zymosan. Samples were incubated overnight under conditions described above. At the end of incubation supernatants were transferred to eppendorf tubes and centrifuged for 10 min at 1500 g. Concentrations of human TNF-α, IL-1β, IL-6 and IL-8 were determined in cell supernatants by sandwich ELISA, using capture and detection antibodies (R&D, USA) according to manufacturer's recommendations.
(§7) Inhibition (as percentage) was calculated using the following formula: % inhibition=(1−concentration of cytokines in sample/concentration of cytokines in positive control)×100 where “positive control” refers to stimulated samples not treated with substances.

human IL-6 = experiment: Inhibition of IL-6 production by stimulated human peripheral blood leukocytes in vitro (ELISA); settings: Homo sapiens, Leukocyte, PBL, read-out: Percentage of inhibition of IL-6 production; for inhibition at 10 µM: compound 10 μM; for inhibition at 50 µM: compound 50 μM
Method: as §4, §5, §6, §7

human IL-1β = experiment: Inhibition of IL-1β production by stimulated human peripheral blood leukocytes in vitro (ELISA); settings: Homo sapiens, Leukocyte, PBL, read-out: Percentage of inhibition of IL-1β production; for inhibition at 10 µM: compound 10 μM; for inhibition at 50 µM: compound 50 μM
Method: as §4, §5, §6, §7

human TNF-α = experiment: Inhibition of TNF-α production by stimulated human peripheral blood leukocytes in vitro (ELISA); settings: Homo sapiens, Leukocyte, PBL, read-out: Percentage of inhibition of TNF-α production; for inhibition at 10 µM: compound 10 μM; for inhibition at 50 µM: compound 50 μM
Method: as §4, §5, §6, §7

Row | SMILES | Percentage of viable cells after treatment (THP-1; 12.5 μM) [%] | Percentage of viable cells after treatment (THP-1; 50 μM) [%] | Percentage of viable cells after treatment (A549; 12.5 μM) [%] | Percentage of viable cells after treatment (A549; 50 μM) [%] | Percentage of viable cells after treatment (Hep G2; 12.5 μM) [%] | Percentage of viable cells after treatment (Hep G2; 50 μM) [%] | inhibition at 10 µM (human IL-8; LPS stimulation) [%] | inhibition at 50 µM (human IL-8; LPS stimulation) [%] | inhibition at 10 µM (human IL-8; PMA stimulation) [%] | inhibition at 50 µM (human IL-8; PMA stimulation) [%] | inhibition at 10 µM (human IL-8; zymosan stimulation) [%] | inhibition at 50 µM (human IL-8; zymosan stimulation) [%] | inhibition at 10 µM (human IL-6; LPS stimulation) [%] | inhibition at 50 µM (human IL-6; LPS stimulation) [%] | inhibition at 10 µM (human IL-6; PMA stimulation) [%] | inhibition at 50 µM (human IL-6; PMA stimulation) [%] | inhibition at 10 µM (human IL-6; zymosan stimulation) [%] | inhibition at 50 µM (human IL-6; zymosan stimulation) [%] | inhibition at 10 µM (human IL-1β; LPS stimulation) [%] | inhibition at 50 µM (human IL-1β; LPS stimulation) [%] | further results
1 | CC[C@H]1OC(=O)[C@H](C)[C@@H](OC(=O)CCN2CCN(CCN(CC)CC)CC2)[C@H](C)[C@@H](O[C@@H]2O[C@H](C)C[C@H](N(C)C)[C@H]2O)[C@](C)(OC)C[C@@H](C)C(=O)N[C@H](C)[C@@H](O)[C@]1(C)O [Example 18, 6-O-Methyl-3-O-decladinosyl-3-O-{3-[4-(2-Diethylamino-ethyl)-piperazin-1-yl]-propionyl}-9a-aza-9a-homoerythromycin A] | 100 | 100 | 100 | 100 | >95 | 100 | 1 | 30 | 16 | 13 | 3 | 21 | 9 | 50 | 53 | 47 | 18 | 47 | 44 | 73 | inhibition at 10 µM (human IL-1β; PMA stimulation): 66%; inhibition at 50 µM (human IL-1β; PMA stimulation): 87%; inhibition at 10 µM (human IL-1β; zymosan stimulation): 32%; inhibition at 50 µM (human IL-1β; zymosan stimulation): 76%; inhibition at 10 µM (human TNF-α; LPS stimulation): 7%; inhibition at 50 µM (human TNF-α; LPS stimulation): 0%; inhibition at 10 µM (human TNF-α; PMA stimulation): 50%; inhibition at 50 µM (human TNF-α; PMA stimulation): 82%; inhibition at 10 µM (human TNF-α; zymosan stimulation): 12%; inhibition at 50 µM (human TNF-α; zymosan stimulation): 0%
2 | CC[C@H]1OC(=O)[C@H](C)[C@@H](OC(=O)CCN2CCN(CCN(C)C)CC2)[C@H](C)[C@@H](O[C@@H]2O[C@H](C)C[C@H](N(C)C)[C@H]2O)[C@](C)(OC)C[C@@H](C)C(=O)N[C@H](C)[C@@H](O)[C@]1(C)O [Example 19, 6-O-Methyl-3-O-decladinosyl-3-O-{3-[4-(2-Dimethylamino-ethyl)-piperazin-1-yl]-propionyl}-9a-aza-9a-homoerythromycin A] | 100 | 100 | 100 | >95 | 100 | 100 | 6 | 32 | 14 | 0 | 9 | 26 | 16 | 56 | 56 | 61 | 19 | 44 | 44 | 73 | inhibition at 10 µM (human IL-1β; PMA stimulation): 66%; inhibition at 50 µM (human IL-1β; PMA stimulation): 86%; inhibition at 10 µM (human IL-1β; zymosan stimulation): 35%; inhibition at 50 µM (human IL-1β; zymosan stimulation): 80%; inhibition at 10 µM (human TNF-α; LPS stimulation): 11%; inhibition at 50 µM (human TNF-α; LPS stimulation): 7%; inhibition at 10 µM (human TNF-α; PMA stimulation): 53%; inhibition at 50 µM (human TNF-α; PMA stimulation): 82%; inhibition at 10 µM (human TNF-α; zymosan stimulation): 18%; inhibition at 50 µM (human TNF-α; zymosan stimulation): 12%
3 | CC[C@H]1OC(=O)[C@H](C)[C@@H](OC(=O)CCN(C)CCO)[C@H](C)[C@@H](O[C@@H]2O[C@H](C)C[C@H](N(C)C)[C@H]2O)[C@](C)(OC)C[C@@H](C)C(=O)N[C@H](C)[C@@H](O)[C@]1(C)O [Example 23, 6-O-Methyl-3-O-decladinosyl-3-O-{3-[(2-Hydroxy-ethyl)-methyl-amino]-propionyl}-9a-aza-9a-homoerythromycin A] | 100 | 100 | 100 | >95 | 100 | 100 | 0 | 95 | 0 | 90 | 0 | 98 | 8 | 100 | 51 | 92 | 26 | 100 | 73 | 100 | inhibition at 10 µM (human IL-1β; PMA stimulation): 81%; inhibition at 50 µM (human IL-1β; PMA stimulation): 98%; inhibition at 10 µM (human IL-1β; zymosan stimulation): 70%; inhibition at 50 µM (human IL-1β; zymosan stimulation): 100%; inhibition at 10 µM (human TNF-α; LPS stimulation): 0%; inhibition at 50 µM (human TNF-α; LPS stimulation): 97%; inhibition at 10 µM (human TNF-α; PMA stimulation): 58%; inhibition at 50 µM (human TNF-α; PMA stimulation): 79%; inhibition at 10 µM (human TNF-α; zymosan stimulation): 0%; inhibition at 50 µM (human TNF-α; zymosan stimulation): 96%
